Laboratory results taken from patent publication US4353923A, “Pharmaceutical composition containing a benzofurancarboxamide derivative as the active ingredient” (Kyowa Hakko Kogyo Co., Ltd., priority 1980, dated 1982).

Columns and labels:
male dd mice [1] = test: Muscle relaxant activity: traction test; format: in vivo; conditions: 5 mice per group
Text: (§1) In this example, 5 male dd mice weighing 20±1 g were used as one group. Prior to the experiments, mice were placed on the rod having a diameter of 3 cm and rotating at 5 r.p.m. in the reverse direction of the rotation. […] The drugs were orally administered and the muscle relaxant activity with the passage of time was examined by the following tests.
Traction test: Forefeet of the same mouse were placed on a wire to observe whether it falls or not.
(§2) In each test, the drug was considered to have a muscle relaxant activity when the mouse fell.

male dd mice [2] = test: Analgesic activity: acetic acid writhing; format: in vivo; conditions: Mus musculus, po, 1 h, acetic acid i.p. after 60 min, read-out: Inhibition ratio (writhes, vs control); for inhibition in vivo at 150 mg/kg: 150 mg/kg p.o.
Procedure: In this experiment, 10 male dd mice weighing 20±1 g were used as one group for examination of analgesic activity. Sixty minutes after oral administration of each drug to each animal, 0.2 ml of a 0.7% acetic acid solution was intraperitoneally administered to the animal. Starting 10 minutes after the administration of acetic acid, the number of writhes occurred in 10 minutes was counted. Average number of writhes and inhibition ratio in comparison with control group were calculated.

in vivo = conditions: mouse, po, mice, deaths counted for 7 days
Procedure: In this example, 3-7 male dd mice weighing 20±1 g were used as one group. Each drug was suspended in a 0.3% CMC solution and orally administered. After the administration, number of dead animals was counted for 7 days to determine LD50 value. As the reference drugs, mepirizole and benzydamine hydrochloride were dissolved in water and orally administered. The drugs and the reference drugs were also administered in the same manner as above in Examples 2-5.

male dd mice [3] = test: Muscle relaxant activity: rotating rod test; format: in vivo; conditions: 5 mice per group
Procedure: as §1
Rotating rod test: The same mouse was placed on the rotating rod to observe whether it falls or not within 2 minutes.
as §2

male dd mice [4] = test: Anticonvulsant activity: maximal electroshock convulsion test; format: in vivo; conditions: Mus musculus, po, 1 h, 60 min after administration, read-out: Maximal electroshock convulsion test, inhibition ratio; for responders at 150 mg/kg: 150 mg/kg p.o.; for responders at 300 mg/kg: 300 mg/kg p.o.; for responders at 100 mg/kg: 100 mg/kg p.o.
Text: Anticonvulsant activity was examined according to maximal electroshock convulsion test.
In this experiment, 10 male dd mice weighing 23±1 g were used as one group. Each drug was orally administered to the animals. Sixty minutes after the administration, an electric current (2000 V, 50 mA) was applied to both eyes of the mouse for 0.2 second. Drug activity was judged according to whether tonic extensor seizures were observed or not.

male dd mice [5] = test: Muscle relaxant activity: slant test; format: in vivo; conditions: 5 mice per group
Procedure: as §1
Slant test: Each mouse was placed on a wire net inclined at an angle of 45° to observe whether it falls or not.
as §2

male Wistar rats = test: Anti-inflammatory activity: carrageenin edema method; format: in vivo; conditions: Rattus norvegicus, po, 3 hours after carrageenin, read-out: Inhibition ratio (paw swelling, vs control); for inhibition in vivo at 150 mg/kg: 150 mg/kg p.o.
Procedure: In this experiment, 5 male Wistar rats weighing 140±10 g were used as one group. Sixty minutes after oral administration of each drug to each animal, 0.1 ml of a 1% carrageenin solution as a phlogistic agent was injected into the plantar surface of the right hind paw of the animal to induce inflammation. The volume of the paw was measured before and 3 hours after the injection of the phlogistic agent. Swelling ratio and inhibition ratio in comparison with control group were calculated.

Row | SMILES | Number of dropped mice, traction test (male dd mice [1]; 150 mg/kg p.o., 1 hr) | Number of dropped mice, traction test (male dd mice [1]; 150 mg/kg p.o., 2 hr) | Number of dropped mice, traction test (male dd mice [1]; 150 mg/kg p.o., 3 hr) | Number of dropped mice, traction test (male dd mice [1]; 300 mg/kg p.o., 1 hr) | Number of dropped mice, traction test (male dd mice [1]; 300 mg/kg p.o., 2 hr) | Number of dropped mice, traction test (male dd mice [1]; 300 mg/kg p.o., 3 hr) | inhibition in vivo at 150 mg/kg (male dd mice [2]) | LD50 at 168 h (in vivo) | Number of dropped mice, rotating rod test (male dd mice [3]; 150 mg/kg p.o., 1 hr) | Number of dropped mice, rotating rod test (male dd mice [3]; 150 mg/kg p.o., 2 hr) | Number of dropped mice, rotating rod test (male dd mice [3]; 150 mg/kg p.o., 3 hr) | responders at 150 mg/kg (male dd mice [4]) | responders at 300 mg/kg (male dd mice [4]) | Number of dropped mice, slant test (male dd mice [5]; 150 mg/kg p.o., 1 hr) | Number of dropped mice, slant test (male dd mice [5]; 150 mg/kg p.o., 2 hr) | Number of dropped mice, slant test (male dd mice [5]; 150 mg/kg p.o., 3 hr) | Number of dropped mice, slant test (male dd mice [5]; 300 mg/kg p.o., 1 hr) | Number of dropped mice, slant test (male dd mice [5]; 300 mg/kg p.o., 2 hr) | Number of dropped mice, slant test (male dd mice [5]; 300 mg/kg p.o., 3 hr) | inhibition in vivo at 150 mg/kg (male Wistar rats) | further results
1 | Cc1ccc2oc(C(=O)N(C)C)c(C)c2c1 [Compound (E), N,N,3,5-Tetramethylbenzo-[b]furan-2-carboxamide] | 0 mice | 0 mice | 0 mice | 3 mice | 1 mice | 1 mice | 22.6% | > 1000 mg/kg | 1 mice | 0 mice | 0 mice | 10% | 57.1% | 1 mice | 0 mice | 0 mice | 3 mice | 2 mice | 1 mice | 14.7% | Number of dropped mice, rotating rod test (male dd mice [3]; 300 mg/kg p.o., 1 hr): 4 mice; Number of dropped mice, rotating rod test (male dd mice [3]; 300 mg/kg p.o., 2 hr): 2 mice; Number of dropped mice, rotating rod test (male dd mice [3]; 300 mg/kg p.o., 3 hr): 2 mice
2 | COc1ccc2oc(C(=O)N(C)C)c(C)c2c1 [Compound (F), 5-Methoxy-N,N,3-trimethyl-benzo[b]furan-2-carboxamide] | 1 mice | 0 mice | 0 mice | 5 mice | 3 mice | 1 mice | 11% | > 1000 mg/kg | 1 mice | 0 mice | 0 mice | 30% | 100% | – | – | – | 4 mice | 2 mice | 1 mice | 0% | Number of dropped mice, rotating rod test (male dd mice [3]; 300 mg/kg p.o., 1 hr): 5 mice; Number of dropped mice, rotating rod test (male dd mice [3]; 300 mg/kg p.o., 2 hr): 5 mice; Number of dropped mice, rotating rod test (male dd mice [3]; 300 mg/kg p.o., 3 hr): 3 mice
3 | Cc1c(C(=O)N(C)C)oc2ccc(Cl)cc12 [Compound (G), 5-Chloro-N,N,3-trimethyl-benzo[b]furan-2-carboxamide] | 3 mice | 3 mice | 2 mice | – | – | – | 91.4% | > 1000 mg/kg | 5 mice | 4 mice | 3 mice | – | – | 3 mice | 2 mice | 2 mice | 5 mice | 5 mice | 5 mice | 45.7% | Number of dropped mice, traction test (male dd mice [1]; 75 mg/kg p.o., 1 hr): 1 mice; Number of dropped mice, traction test (male dd mice [1]; 75 mg/kg p.o., 2 hr): 1 mice; Number of dropped mice, traction test (male dd mice [1]; 75 mg/kg p.o., 3 hr): 1 mice; Number of dropped mice, rotating rod test (male dd mice [3]; 75 mg/kg p.o., 1 hr): 3 mice; Number of dropped mice, rotating rod test (male dd mice [3]; 75 mg/kg p.o., 2 hr): 1 mice; Number of dropped mice, rotating rod test (male dd mice [3]; 75 mg/kg p.o., 3 hr): 1 mice; responders at 50 mg/kg (male dd mice [4]; 50 mg/kg p.o.): 0%; responders at 75 mg/kg (male dd mice [4]; 75 mg/kg p.o.): 40%; responders at 100 mg/kg (male dd mice [4]): 100%
4 | COc1cc(C)nc(-n2nc(C)cc2OC)n1 [Mepirizole, mepirizole, reference compound] | 2 mice | 0 mice | 0 mice | – | – | – | – | 500 to 1000 mg/kg | 5 mice | 1 mice | 0 mice | 85.7% | 100% | 3 mice | 1 mice | 0 mice | – | – | – | – | inhibition in vivo at 50 mg/kg (male dd mice [2]; 50 mg/kg p.o.): 30.4%; inhibition in vivo at 200 mg/kg (male dd mice [2]; 200 mg/kg p.o.): 84.7%; responders at 100 mg/kg (male dd mice [4]): 20%; inhibition in vivo at 100 mg/kg (male Wistar rats; 100 mg/kg p.o.): 29.2%; inhibition in vivo at 200 mg/kg (male Wistar rats; 200 mg/kg p.o.): 47%
